Test results published in patent US8084467B2, “Pyrazole derivatives as cannabinoid receptor antagonists” (University of Connecticut, priority 2004, dated 2011).

Biological target: T1, CB1 cannabinoid receptor (Rattus norvegicus, UniProt P20272)
T1 construct: membranes were prepared from rat forebrain membranes; from tissue; host or cells: rat forebrain
Test: CB1 receptor binding, rat forebrain membranes, [3H] CP-55,940 displacement
Conditions: not given
Protocol: Some of the inventive analogs were tested for CB2 receptor binding affinity and for CB1 receptor affinity (to determine selectivity). […] The lower the Ki value the higher the binding affinity. […]
Membranes, previously frozen at −80° C., were thawed on ice. To the stirred suspension was added three volumes of TME (25 mM Tris-HCl buffer, 5 mM MgCl2 and 1 mM EDTA) at a pH 7.4. The suspension was incubated at 4° C. for 30 min. At the end of the incubation, the membranes were pelleted and washed three times with TME.
(§1) The treated membranes were subsequently used in the binding assay described below. Approximately 30 μg of membranes were incubated in silanized 96-well microtiter plate with TME containing 0.1% essentially fatty acid-free bovine serum albumin (BSA), 0.8 nM [^3H] […] Radioactivity was detected using MicroScint 20 scintillation cocktail added directly to the dried filterplates, and the filterplates were counted using a Packard Instruments Top-Count. […] Data collected from three independent experiments performed with duplicate determinations was normalized between 100% and 0% specific binding for [^3H] […] The normalized data was analyzed using a 4-parameter nonlinear logistic equation to yield IC50 values.

T1 sequence (P20272 whole entry): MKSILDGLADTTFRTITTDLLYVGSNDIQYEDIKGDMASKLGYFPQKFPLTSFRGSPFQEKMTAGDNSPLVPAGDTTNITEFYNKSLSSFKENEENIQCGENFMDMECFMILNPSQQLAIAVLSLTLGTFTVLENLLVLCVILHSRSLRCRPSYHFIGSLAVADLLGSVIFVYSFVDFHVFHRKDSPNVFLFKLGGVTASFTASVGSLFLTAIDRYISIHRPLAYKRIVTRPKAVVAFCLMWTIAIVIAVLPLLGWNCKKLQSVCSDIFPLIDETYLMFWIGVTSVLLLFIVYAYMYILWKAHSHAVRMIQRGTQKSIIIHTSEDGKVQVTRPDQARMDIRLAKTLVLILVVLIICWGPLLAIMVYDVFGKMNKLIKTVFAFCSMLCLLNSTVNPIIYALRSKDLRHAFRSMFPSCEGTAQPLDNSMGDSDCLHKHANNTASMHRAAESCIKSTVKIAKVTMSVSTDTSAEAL

| SMILES | selectivity CB1 |
| --- | --- |
| COCc1c(C(=O)NC23CC4CC(CC(C4)C2)C3)nn(-c2ccc(Cl)cc2Cl)c1-c1ccc(Br)cc1 [Compound 1-7] | 32 |

Same assay, conditions: affinities Ki CB1, rat forebrain membranes, 0.8 nM [3H] CP-55,940

| SMILES | Ki [nM] |
| --- | --- |
| COCc1c(C(=O)NN2CCCCC2)nn(-c2ccc(Cl)cc2Cl)c1-c1ccc(Br)cc1 [Compound 1-8] | 19 |
| COCc1c(C(=O)N(C)C2CCCCC2)nn(-c2ccc(Cl)cc2Cl)c1-c1ccc(Br)cc1 [Compound 1-29] | 273 |

Same assay, conditions: rat forebrain membranes, 0.8 nM [3H] CP-55,940; read-out: affinities Ki CB1

| SMILES | Ki [nM] |
| --- | --- |
| Cc1c(C(=O)NN2CCCCC2)nn(-c2ccc(Cl)cc2Cl)c1-c1ccc(-c2cccc(Cl)c2)cc1 [Compound 1-1] | 1.5 |
| Cc1c(C(=O)NN2CCCCC2)nn(-c2ccc(Cl)cc2Cl)c1-c1ccc(-c2ccc(Cl)cc2)cc1 [Compound 1-2] | 5.8 |
| Cc1c(C(=O)NN2CCCCC2)nn(-c2ccc(Cl)cc2Cl)c1-c1ccc(-c2ccccc2Cl)cc1 [Compound 1-3] | 85.1 |
| Cc1c(C(=O)NN2CCCCC2)nn(-c2ccc(Cl)cc2Cl)c1-c1ccc(-c2cccnc2)cc1 [Compound 1-4] | 11.2 |
| O=C(NN1CCCCC1)c1nn(-c2ccc(Cl)cc2Cl)c(-c2ccc(-c3cccnc3)cc2)c1CF [Compound 1-6] | 15.1 |
| COCc1c(C(=O)NC23CC4CC(CC(C4)C2)C3)nn(-c2ccc(Cl)cc2Cl)c1-c1ccc(Br)cc1 [Compound 1-7] | 53 |
| COCc1c(C(=O)NC2CCCCC2)nn(-c2ccc(Cl)cc2Cl)c1-c1ccc(Br)cc1 [Compound 1-9] | 4 |
| CCOCc1c(C(=O)NC2CCCCC2)nn(-c2ccc(Cl)cc2Cl)c1-c1ccc(Br)cc1 [Compound 1-10] | 54 |
| CCOCc1c(C(=O)NC23CC4CC(CC(C4)C2)C3)nn(-c2ccc(Cl)cc2Cl)c1-c1ccc(Br)cc1 [Compound 1-11] | 105 |
| CCOCc1c(C(=O)NN2CCCCC2)nn(-c2ccc(Cl)cc2Cl)c1-c1ccc(Br)cc1 [Compound 1-12] | 46 |
| COCOCc1c(C(=O)NC2CCCCC2)nn(-c2ccc(Cl)cc2Cl)c1-c1ccc(Br)cc1 [Compound 1-13] | 15 |
| COCOCc1c(C(=O)N2CCCCC2)nn(-c2ccc(Cl)cc2Cl)c1-c1ccc(Br)cc1 [Compound 1-14] | 395 |
| CNCc1c(C(=O)NC2CCCCC2)nn(-c2ccc(Cl)cc2Cl)c1-c1ccc(Br)cc1 [Compound 1-15] | 172 |
| CN(C)CCOCc1c(C(=O)NC2CCCCC2)nn(-c2ccc(Cl)cc2Cl)c1-c1ccc(Br)cc1 [Compound 1-16] | 24 |
| COCc1c(C(=O)NC2CCCCC2)nn(-c2ccc(Cl)cc2Cl)c1-c1ccc(-c2ccsc2)cc1 [Compound 1-17] | 241 |
| COCc1c(C(=O)NC2CCCCC2)nn(-c2ccc(Cl)cc2Cl)c1-c1ccc(-c2cccnc2)cc1 [Compound 1-18] | 62 |
| COCc1c(C(=O)NC2CCCCC2)nn(-c2ccc(Cl)cc2Cl)c1-c1ccc(-c2ccncc2)cc1 [Compound 1-19] | 160 |
| COCc1c(C(=O)NC2CCCCC2)nn(-c2ccc(Cl)cc2Cl)c1-c1ccc(-c2ccccn2)cc1 [Compound 1-20] | 51 |
| COCc1c(C(=O)NC2CCCCC2)nn(-c2ccc(Cl)cc2Cl)c1-c1ccc(I)cc1 [Compound 1-22] | 15 |
| Cc1c(C=Cc2ccccc2)nn(-c2ccc(Cl)cc2Cl)c1-c1ccc(Br)cc1 [Compound 1-23] | 331 |

Same assay, conditions: ratio of CB2 Ki to CB1 Ki

| SMILES | selectivity CB1 |
| --- | --- |
| Cc1c(C(=O)NN2CCCCC2)nn(-c2ccc(Cl)cc2Cl)c1-c1ccc(-c2cccc(Cl)c2)cc1 [Compound 1-1] | 491 |
| Cc1c(C(=O)NN2CCCCC2)nn(-c2ccc(Cl)cc2Cl)c1-c1ccc(-c2ccc(Cl)cc2)cc1 [Compound 1-2] | 274 |
| Cc1c(C(=O)NN2CCCCC2)nn(-c2ccc(Cl)cc2Cl)c1-c1ccc(-c2ccccc2Cl)cc1 [Compound 1-3] | 16 |
| Cc1c(C(=O)NN2CCCCC2)nn(-c2ccc(Cl)cc2Cl)c1-c1ccc(-c2cccnc2)cc1 [Compound 1-4] | 118 |
| O=C(NN1CCCCC1)c1nn(-c2ccc(Cl)cc2Cl)c(-c2ccc(-c3cccnc3)cc2)c1CF [Compound 1-6] | 128 |
| COCc1c(C(=O)NN2CCCCC2)nn(-c2ccc(Cl)cc2Cl)c1-c1ccc(Br)cc1 [Compound 1-8] | 31 |
| COCc1c(C(=O)NC2CCCCC2)nn(-c2ccc(Cl)cc2Cl)c1-c1ccc(Br)cc1 [Compound 1-9] | 124 |
| CCOCc1c(C(=O)NC2CCCCC2)nn(-c2ccc(Cl)cc2Cl)c1-c1ccc(Br)cc1 [Compound 1-10] | 16 |
| CCOCc1c(C(=O)NC23CC4CC(CC(C4)C2)C3)nn(-c2ccc(Cl)cc2Cl)c1-c1ccc(Br)cc1 [Compound 1-11] | 452 |
| CCOCc1c(C(=O)NN2CCCCC2)nn(-c2ccc(Cl)cc2Cl)c1-c1ccc(Br)cc1 [Compound 1-12] | 11 |
| COCOCc1c(C(=O)NC2CCCCC2)nn(-c2ccc(Cl)cc2Cl)c1-c1ccc(Br)cc1 [Compound 1-13] | 3.6 |
| COCOCc1c(C(=O)N2CCCCC2)nn(-c2ccc(Cl)cc2Cl)c1-c1ccc(Br)cc1 [Compound 1-14] | 7.8 |
| CNCc1c(C(=O)NC2CCCCC2)nn(-c2ccc(Cl)cc2Cl)c1-c1ccc(Br)cc1 [Compound 1-15] | 2.3 |
| CN(C)CCOCc1c(C(=O)NC2CCCCC2)nn(-c2ccc(Cl)cc2Cl)c1-c1ccc(Br)cc1 [Compound 1-16] | 5.8 |
| COCc1c(C(=O)NC2CCCCC2)nn(-c2ccc(Cl)cc2Cl)c1-c1ccc(-c2ccsc2)cc1 [Compound 1-17] | 4.0 |
| COCc1c(C(=O)NC2CCCCC2)nn(-c2ccc(Cl)cc2Cl)c1-c1ccc(-c2cccnc2)cc1 [Compound 1-18] | 10.4 |
| COCc1c(C(=O)NC2CCCCC2)nn(-c2ccc(Cl)cc2Cl)c1-c1ccc(-c2ccncc2)cc1 [Compound 1-19] | 18.6 |
| COCc1c(C(=O)NC2CCCCC2)nn(-c2ccc(Cl)cc2Cl)c1-c1ccc(-c2ccccn2)cc1 [Compound 1-20] | 5.4 |
| COCc1c(C(=O)NC2CCCCC2)nn(-c2ccc(Cl)cc2Cl)c1-c1ccc(I)cc1 [Compound 1-22] | 45 |
| Cc1c(C=Cc2ccccc2)nn(-c2ccc(Cl)cc2Cl)c1-c1ccc(Br)cc1 [Compound 1-23] | 49.6 |
| COCc1c(C(=O)N(C)C2CCCCC2)nn(-c2ccc(Cl)cc2Cl)c1-c1ccc(Br)cc1 [Compound 1-29] | 7.5 |

Biological target: T2, CB2 receptor (Mus musculus, UniProt P47936)
T2 construct: membranes were prepared from frozen mouse spleen; from tissue; host or cells: mouse spleen
Test: CB2 receptor binding, mouse spleen membranes, same manner as the CB1 binding assay
Conditions: affinities Ki CB2, mouse spleen membranes, [3H] CP-55,940
Protocol: Some of the inventive analogs were tested for CB2 receptor binding affinity and for CB1 receptor affinity (to determine selectivity). […] The lower the Ki value the higher the binding affinity.
as §1
Silanized centrifuge tubes were used throughout to minimize receptor loss due to adsorption. The CB2 binding assay was conducted in the same manner as for the CB1 binding assay. The binding affinities (Ki) were also expressed in nanomoles (nM).

T2 sequence (P47936 whole entry): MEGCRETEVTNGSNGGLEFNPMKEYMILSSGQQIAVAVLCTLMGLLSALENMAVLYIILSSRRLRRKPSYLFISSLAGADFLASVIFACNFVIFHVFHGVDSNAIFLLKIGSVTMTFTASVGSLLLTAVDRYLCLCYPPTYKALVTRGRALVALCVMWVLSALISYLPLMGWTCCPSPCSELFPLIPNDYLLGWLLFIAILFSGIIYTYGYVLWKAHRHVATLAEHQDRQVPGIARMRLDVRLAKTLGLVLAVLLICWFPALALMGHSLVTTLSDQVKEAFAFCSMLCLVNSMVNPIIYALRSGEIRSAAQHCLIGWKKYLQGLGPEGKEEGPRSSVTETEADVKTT

| SMILES | Ki [nM] |
| --- | --- |
| COCc1c(C(=O)NN2CCCCC2)nn(-c2ccc(Cl)cc2Cl)c1-c1ccc(Br)cc1 [Compound 1-8] | 561 |
| COCOCc1c(C(=O)N2CCCCC2)nn(-c2ccc(Cl)cc2Cl)c1-c1ccc(Br)cc1 [Compound 1-14] | 3100 |
| COCc1c(C(=O)N(C)C2CCCCC2)nn(-c2ccc(Cl)cc2Cl)c1-c1ccc(Br)cc1 [Compound 1-29] | 2040 |

Same assay, conditions: mouse spleen membranes, [3H] CP-55,940; read-out: affinities Ki CB2

| SMILES | Ki [nM] |
| --- | --- |
| Cc1c(C(=O)NN2CCCCC2)nn(-c2ccc(Cl)cc2Cl)c1-c1ccc(-c2cccc(Cl)c2)cc1 [Compound 1-1] | 741 |
| Cc1c(C(=O)NN2CCCCC2)nn(-c2ccc(Cl)cc2Cl)c1-c1ccc(-c2ccc(Cl)cc2)cc1 [Compound 1-2] | 1590 |
| Cc1c(C(=O)NN2CCCCC2)nn(-c2ccc(Cl)cc2Cl)c1-c1ccc(-c2ccccc2Cl)cc1 [Compound 1-3] | 1370 |
| Cc1c(C(=O)NN2CCCCC2)nn(-c2ccc(Cl)cc2Cl)c1-c1ccc(-c2cccnc2)cc1 [Compound 1-4] | 1330 |
| O=C(NN1CCCCC1)c1nn(-c2ccc(Cl)cc2Cl)c(-c2ccc(-c3cccnc3)cc2)c1CF [Compound 1-6] | 1930 |
| COCc1c(C(=O)NC23CC4CC(CC(C4)C2)C3)nn(-c2ccc(Cl)cc2Cl)c1-c1ccc(Br)cc1 [Compound 1-7] | 1680 |
| COCc1c(C(=O)NC2CCCCC2)nn(-c2ccc(Cl)cc2Cl)c1-c1ccc(Br)cc1 [Compound 1-9] | 495 |
| CCOCc1c(C(=O)NC2CCCCC2)nn(-c2ccc(Cl)cc2Cl)c1-c1ccc(Br)cc1 [Compound 1-10] | 842 |
| CCOCc1c(C(=O)NC23CC4CC(CC(C4)C2)C3)nn(-c2ccc(Cl)cc2Cl)c1-c1ccc(Br)cc1 [Compound 1-11] | 47500 |
| CCOCc1c(C(=O)NN2CCCCC2)nn(-c2ccc(Cl)cc2Cl)c1-c1ccc(Br)cc1 [Compound 1-12] | 490 |
| COCOCc1c(C(=O)NC2CCCCC2)nn(-c2ccc(Cl)cc2Cl)c1-c1ccc(Br)cc1 [Compound 1-13] | 54 |
| CNCc1c(C(=O)NC2CCCCC2)nn(-c2ccc(Cl)cc2Cl)c1-c1ccc(Br)cc1 [Compound 1-15] | 397 |
| CN(C)CCOCc1c(C(=O)NC2CCCCC2)nn(-c2ccc(Cl)cc2Cl)c1-c1ccc(Br)cc1 [Compound 1-16] | 140 |
| COCc1c(C(=O)NC2CCCCC2)nn(-c2ccc(Cl)cc2Cl)c1-c1ccc(-c2ccsc2)cc1 [Compound 1-17] | 968 |
| COCc1c(C(=O)NC2CCCCC2)nn(-c2ccc(Cl)cc2Cl)c1-c1ccc(-c2cccnc2)cc1 [Compound 1-18] | 646 |
| COCc1c(C(=O)NC2CCCCC2)nn(-c2ccc(Cl)cc2Cl)c1-c1ccc(-c2ccncc2)cc1 [Compound 1-19] | 2980 |
| COCc1c(C(=O)NC2CCCCC2)nn(-c2ccc(Cl)cc2Cl)c1-c1ccc(-c2ccccn2)cc1 [Compound 1-20] | 277 |
| COCc1c(C(=O)NC2CCCCC2)nn(-c2ccc(Cl)cc2Cl)c1-c1ccc(I)cc1 [Compound 1-22] | 675 |
| Cc1c(C=Cc2ccccc2)nn(-c2ccc(Cl)cc2Cl)c1-c1ccc(Br)cc1 [Compound 1-23] | 16400 |
